Inhibition data for four compounds are collected here from patent publication US20250326753A1, “DUAL CXCR4-BTK INHIBITORS” (X4 Pharmaceuticals, Inc., priority 2022, published 2025).

Holding throughout (format): biochemical
For one assay, the target named is T1, EGFR (Homo sapiens, UniProt P00533).
T1 construct: purchased Reaction Biology Europe GmbH
As to the kind of experiment: PanQinase kinase panel: EGFR. The note with it: read-out: INHIBITORY EFFECT @ 1 uM: EGFR. On the procedure: (§1) Screening procedures were performed in accordance with the company's on-line protocol [accessed on-line Mar.
(§2) For each kinase, the median value of the cpm of three wells was defined as “low control” (n=3). This value reflects unspecific binding of radioactivity to the plate in the absence of a protein kinase but in the presence of the substrate. Additionally, for each kinase the median value of the cpm of three other wells was taken as the “high control,” i.e. full activity in the absence of any inhibitor (n=3). The difference between high and low control of each enzyme was taken as 100% activity.
(§3) As part of the data evaluation the low control of each kinase was subtracted from the high control value as well as from their corresponding “compound values”. The residual activity (in %) for each compound well was calculated by using the following formula: Res. Activity (%)=100×[(signal of compound−low control)/(high control−low control)].

In the next assay the target is T2, PKN3 (Homo sapiens, UniProt Q6P5Z2).
T2 construct: purchased Reaction Biology Europe GmbH
The assay can be described thus: PanQinase kinase panel: PKN3. Particulars: read-out: INHIBITORY EFFECT @ 1 uM: PKN3. On the procedure:
as §1, §2, §3

For a further assay, the target named is T3, RAF1 YDYD (Homo sapiens, UniProt P04049, Y340D/Y341D).
T3 construct: purchased Reaction Biology Europe GmbH
The assay can be described thus: PanQinase kinase panel: RAF1 YDYD. Particulars: read-out: INHIBITORY EFFECT @ 1 uM: RAF1 YDYD. On the procedure:
as §1, §2, §3

Another assay concerns the target T4, PAK3 (Homo sapiens, UniProt O75914).
T4 construct: purchased Reaction Biology Europe GmbH
As to the kind of experiment: PanQinase kinase panel: PAK3. The note with it: read-out: INHIBITORY EFFECT @ 1 uM: PAK3. On the procedure: as §1, §2, §3

The next assay addresses T5, PDGFRbeta (Homo sapiens, UniProt P09619).
T5 construct: purchased Reaction Biology Europe GmbH
As to the kind of experiment: PanQinase kinase panel: PDGFRbeta. Particulars: read-out: INHIBITORY EFFECT @ 1 uM: PDGFRbeta. On the procedure: as §1, §2, §3

The target of a further assay is T6, TRKA (Homo sapiens, UniProt P04629).
T6 construct: purchased Reaction Biology Europe GmbH
The assay can be described thus: PanQinase kinase panel: TRKA. On the procedure: as §1, §2, §3

The target of the next assay is T7, PAK2 (Homo sapiens, UniProt Q13177).
T7 construct: purchased Reaction Biology Europe GmbH
As to the kind of experiment: PanQinase kinase panel: PAK2. The note with it: read-out: INHIBITORY EFFECT @ 1 uM: PAK2. On the procedure: as §1, §2, §3

The next assay deals with T8, HCK (Homo sapiens, UniProt P08631).
T8 construct: purchased Reaction Biology Europe GmbH
The assay can be described thus: PanQinase kinase panel: HCK. Particulars: read-out: INHIBITORY EFFECT @ 1 uM: HCK. On the procedure:
as §1, §2, §3

A further assay addresses T9, EPHA6 (Homo sapiens, UniProt Q9UF33).
T9 construct: purchased Reaction Biology Europe GmbH
T9 sequence (Q9UF33 23-1036): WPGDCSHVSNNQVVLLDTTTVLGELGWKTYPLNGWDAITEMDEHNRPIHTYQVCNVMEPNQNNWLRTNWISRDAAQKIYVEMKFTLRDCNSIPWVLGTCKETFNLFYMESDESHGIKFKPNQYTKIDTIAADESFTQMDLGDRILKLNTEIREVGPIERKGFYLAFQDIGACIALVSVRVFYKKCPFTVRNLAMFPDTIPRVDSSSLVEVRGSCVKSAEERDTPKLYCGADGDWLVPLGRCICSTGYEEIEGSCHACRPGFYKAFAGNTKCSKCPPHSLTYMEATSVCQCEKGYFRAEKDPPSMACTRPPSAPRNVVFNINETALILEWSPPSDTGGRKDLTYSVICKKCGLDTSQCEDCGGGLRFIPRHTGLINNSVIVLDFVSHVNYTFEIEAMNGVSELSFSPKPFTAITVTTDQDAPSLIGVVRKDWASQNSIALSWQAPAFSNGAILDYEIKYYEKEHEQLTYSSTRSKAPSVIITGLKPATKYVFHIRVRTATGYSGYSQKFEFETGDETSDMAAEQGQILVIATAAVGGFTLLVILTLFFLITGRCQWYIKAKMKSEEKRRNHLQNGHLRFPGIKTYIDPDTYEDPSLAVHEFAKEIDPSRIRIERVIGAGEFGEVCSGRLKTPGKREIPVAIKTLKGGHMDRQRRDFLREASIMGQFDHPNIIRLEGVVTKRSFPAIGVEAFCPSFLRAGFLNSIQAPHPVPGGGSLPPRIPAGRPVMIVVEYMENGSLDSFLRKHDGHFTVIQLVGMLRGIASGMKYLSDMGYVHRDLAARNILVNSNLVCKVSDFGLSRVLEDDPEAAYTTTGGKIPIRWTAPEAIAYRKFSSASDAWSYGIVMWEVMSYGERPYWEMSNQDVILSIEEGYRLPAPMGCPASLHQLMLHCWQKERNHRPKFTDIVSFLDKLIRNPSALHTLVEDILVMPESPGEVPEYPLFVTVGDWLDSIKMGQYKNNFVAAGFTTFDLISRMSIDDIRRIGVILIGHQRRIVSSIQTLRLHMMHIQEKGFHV
The assay can be described thus: PanQinase kinase panel: EPHA6. Particulars: read-out: INHIBITORY EFFECT @ 1 uM: EPHA6. On the procedure: as §1, §2, §3

In a further assay the target is T10, ITK (Homo sapiens, UniProt Q08881).
T10 construct: purchased Reaction Biology Europe GmbH
T10 sequence (Q08881 1-620): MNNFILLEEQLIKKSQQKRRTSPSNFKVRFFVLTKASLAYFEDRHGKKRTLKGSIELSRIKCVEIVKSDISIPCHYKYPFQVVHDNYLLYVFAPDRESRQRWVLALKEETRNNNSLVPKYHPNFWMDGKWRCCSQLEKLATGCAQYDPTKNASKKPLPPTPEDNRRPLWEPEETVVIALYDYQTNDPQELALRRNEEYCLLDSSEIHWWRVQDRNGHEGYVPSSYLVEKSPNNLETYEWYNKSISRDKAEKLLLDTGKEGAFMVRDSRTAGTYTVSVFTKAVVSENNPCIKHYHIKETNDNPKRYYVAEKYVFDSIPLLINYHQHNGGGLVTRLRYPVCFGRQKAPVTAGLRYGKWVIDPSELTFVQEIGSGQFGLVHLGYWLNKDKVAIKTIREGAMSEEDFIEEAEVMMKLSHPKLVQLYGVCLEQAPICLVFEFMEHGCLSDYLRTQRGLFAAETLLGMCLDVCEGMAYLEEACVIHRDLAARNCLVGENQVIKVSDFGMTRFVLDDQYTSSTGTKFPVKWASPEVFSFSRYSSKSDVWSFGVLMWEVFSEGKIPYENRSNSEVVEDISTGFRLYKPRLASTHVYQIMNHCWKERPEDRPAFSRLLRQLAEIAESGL
As to the kind of experiment: PanQinase kinase panel: ITK. Particulars: read-out: INHIBITORY EFFECT @ 1 uM: ITK. On the procedure:
as §1, §2, §3

The target in the next assay is T11, VEGFR2 (Homo sapiens, UniProt P35968).
T11 construct: purchased Reaction Biology Europe GmbH
As to the kind of experiment: PanQinase kinase panel: VEGFR2. Particulars: read-out: INHIBITORY EFFECT @ 1 uM: VEGFR2. On the procedure:
as §1, §2, §3

Setting [1] is: at 1 μM, read-out: inhibition of TRKA.
The mark [2] stands for this setting: read-out: INHIBITORY EFFECT @ 1 uM: TRKA.

Like-named read-outs stand apart in the source and are kept apart here. Where only a bound is given, the exact number is not on record here.

T2 sequence (Q6P5Z2 whole entry): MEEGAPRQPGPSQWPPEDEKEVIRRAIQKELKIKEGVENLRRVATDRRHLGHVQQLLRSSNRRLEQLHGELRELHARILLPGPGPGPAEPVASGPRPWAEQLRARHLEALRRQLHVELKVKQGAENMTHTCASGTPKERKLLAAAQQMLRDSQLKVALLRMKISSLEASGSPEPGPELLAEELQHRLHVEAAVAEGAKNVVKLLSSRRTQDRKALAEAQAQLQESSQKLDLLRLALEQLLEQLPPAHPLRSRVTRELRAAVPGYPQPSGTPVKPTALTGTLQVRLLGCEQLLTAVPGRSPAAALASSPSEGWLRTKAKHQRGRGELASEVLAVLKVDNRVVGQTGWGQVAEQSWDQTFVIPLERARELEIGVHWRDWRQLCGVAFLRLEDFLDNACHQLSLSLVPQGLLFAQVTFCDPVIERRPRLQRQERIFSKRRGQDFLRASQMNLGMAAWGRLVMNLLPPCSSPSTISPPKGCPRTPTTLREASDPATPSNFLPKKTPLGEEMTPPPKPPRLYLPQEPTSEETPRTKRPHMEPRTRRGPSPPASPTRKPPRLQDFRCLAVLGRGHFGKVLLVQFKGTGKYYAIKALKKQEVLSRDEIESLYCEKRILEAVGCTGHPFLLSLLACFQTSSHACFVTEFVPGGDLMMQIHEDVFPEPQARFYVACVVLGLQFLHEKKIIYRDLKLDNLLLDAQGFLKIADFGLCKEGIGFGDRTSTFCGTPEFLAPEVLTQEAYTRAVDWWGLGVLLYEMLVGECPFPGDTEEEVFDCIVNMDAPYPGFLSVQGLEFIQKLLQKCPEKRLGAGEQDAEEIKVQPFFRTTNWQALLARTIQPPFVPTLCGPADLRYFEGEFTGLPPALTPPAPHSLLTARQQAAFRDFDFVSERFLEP
T7 sequence (Q13177 whole entry): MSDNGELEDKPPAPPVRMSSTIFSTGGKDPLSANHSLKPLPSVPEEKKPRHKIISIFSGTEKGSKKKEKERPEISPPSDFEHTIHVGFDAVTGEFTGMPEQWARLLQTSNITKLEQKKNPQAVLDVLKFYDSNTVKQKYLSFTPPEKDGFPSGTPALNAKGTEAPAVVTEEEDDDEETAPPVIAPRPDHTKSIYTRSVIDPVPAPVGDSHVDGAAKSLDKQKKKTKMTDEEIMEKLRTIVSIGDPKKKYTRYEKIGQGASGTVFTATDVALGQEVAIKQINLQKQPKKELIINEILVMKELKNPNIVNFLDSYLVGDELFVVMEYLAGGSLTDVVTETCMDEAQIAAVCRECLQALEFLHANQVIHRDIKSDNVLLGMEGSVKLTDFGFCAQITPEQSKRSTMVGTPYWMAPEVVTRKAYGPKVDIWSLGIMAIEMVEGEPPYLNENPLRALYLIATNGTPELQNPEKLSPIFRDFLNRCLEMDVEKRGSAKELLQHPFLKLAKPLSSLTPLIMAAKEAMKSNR
T8 sequence (P08631 whole entry): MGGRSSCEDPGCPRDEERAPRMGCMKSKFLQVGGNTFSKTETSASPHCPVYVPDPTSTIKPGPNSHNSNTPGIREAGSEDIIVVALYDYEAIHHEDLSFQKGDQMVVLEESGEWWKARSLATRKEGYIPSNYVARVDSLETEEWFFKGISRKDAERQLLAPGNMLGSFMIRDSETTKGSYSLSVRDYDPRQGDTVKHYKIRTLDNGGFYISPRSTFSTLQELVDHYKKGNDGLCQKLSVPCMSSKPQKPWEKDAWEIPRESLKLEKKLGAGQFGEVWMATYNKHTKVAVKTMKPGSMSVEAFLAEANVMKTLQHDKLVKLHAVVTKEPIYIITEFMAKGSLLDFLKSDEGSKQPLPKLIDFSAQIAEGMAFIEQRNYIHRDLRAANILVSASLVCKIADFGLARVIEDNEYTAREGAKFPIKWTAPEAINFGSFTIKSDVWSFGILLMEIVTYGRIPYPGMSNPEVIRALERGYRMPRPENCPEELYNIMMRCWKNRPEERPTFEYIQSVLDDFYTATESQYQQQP
T3 sequence (P04049 307-648 Y340D/Y341D limits assumed): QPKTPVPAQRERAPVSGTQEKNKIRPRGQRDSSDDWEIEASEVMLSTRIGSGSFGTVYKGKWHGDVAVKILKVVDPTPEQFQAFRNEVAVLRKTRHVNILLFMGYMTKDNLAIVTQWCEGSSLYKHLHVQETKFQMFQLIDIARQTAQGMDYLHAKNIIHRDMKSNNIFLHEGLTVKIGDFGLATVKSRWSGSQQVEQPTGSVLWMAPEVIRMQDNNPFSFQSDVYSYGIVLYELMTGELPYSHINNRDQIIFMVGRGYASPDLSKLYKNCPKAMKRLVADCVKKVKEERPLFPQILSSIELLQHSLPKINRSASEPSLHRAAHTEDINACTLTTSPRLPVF
T1 sequence (P00533 25-1210): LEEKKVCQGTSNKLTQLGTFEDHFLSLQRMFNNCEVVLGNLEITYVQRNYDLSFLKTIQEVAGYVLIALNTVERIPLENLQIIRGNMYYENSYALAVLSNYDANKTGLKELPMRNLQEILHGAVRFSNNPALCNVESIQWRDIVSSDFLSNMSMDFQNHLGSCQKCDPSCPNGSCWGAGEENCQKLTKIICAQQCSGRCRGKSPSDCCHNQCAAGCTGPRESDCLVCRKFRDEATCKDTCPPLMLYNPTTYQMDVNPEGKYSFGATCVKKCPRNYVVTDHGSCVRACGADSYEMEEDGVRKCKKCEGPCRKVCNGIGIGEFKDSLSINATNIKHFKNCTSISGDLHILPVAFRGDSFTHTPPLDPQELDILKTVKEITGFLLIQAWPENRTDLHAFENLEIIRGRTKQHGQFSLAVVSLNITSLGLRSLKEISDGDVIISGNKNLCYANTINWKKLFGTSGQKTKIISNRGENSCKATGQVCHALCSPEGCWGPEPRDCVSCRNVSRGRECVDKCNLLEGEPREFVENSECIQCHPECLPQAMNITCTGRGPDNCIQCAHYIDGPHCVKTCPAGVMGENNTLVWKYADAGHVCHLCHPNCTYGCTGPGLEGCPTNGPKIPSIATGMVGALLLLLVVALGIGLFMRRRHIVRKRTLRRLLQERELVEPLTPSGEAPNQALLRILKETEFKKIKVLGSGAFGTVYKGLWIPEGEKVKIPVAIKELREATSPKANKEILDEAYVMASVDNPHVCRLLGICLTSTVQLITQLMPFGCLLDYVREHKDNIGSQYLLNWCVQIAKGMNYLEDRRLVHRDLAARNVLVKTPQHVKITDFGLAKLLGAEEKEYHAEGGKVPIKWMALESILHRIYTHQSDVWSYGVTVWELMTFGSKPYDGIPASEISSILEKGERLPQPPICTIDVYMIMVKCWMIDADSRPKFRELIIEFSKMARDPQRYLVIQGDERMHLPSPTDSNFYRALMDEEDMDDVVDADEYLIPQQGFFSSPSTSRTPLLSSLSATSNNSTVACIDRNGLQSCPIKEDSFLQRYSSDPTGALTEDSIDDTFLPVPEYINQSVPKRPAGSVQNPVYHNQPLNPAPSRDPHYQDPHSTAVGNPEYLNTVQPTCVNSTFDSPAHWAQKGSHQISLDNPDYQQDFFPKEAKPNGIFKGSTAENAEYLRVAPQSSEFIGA
T6 sequence (P04629 33-796): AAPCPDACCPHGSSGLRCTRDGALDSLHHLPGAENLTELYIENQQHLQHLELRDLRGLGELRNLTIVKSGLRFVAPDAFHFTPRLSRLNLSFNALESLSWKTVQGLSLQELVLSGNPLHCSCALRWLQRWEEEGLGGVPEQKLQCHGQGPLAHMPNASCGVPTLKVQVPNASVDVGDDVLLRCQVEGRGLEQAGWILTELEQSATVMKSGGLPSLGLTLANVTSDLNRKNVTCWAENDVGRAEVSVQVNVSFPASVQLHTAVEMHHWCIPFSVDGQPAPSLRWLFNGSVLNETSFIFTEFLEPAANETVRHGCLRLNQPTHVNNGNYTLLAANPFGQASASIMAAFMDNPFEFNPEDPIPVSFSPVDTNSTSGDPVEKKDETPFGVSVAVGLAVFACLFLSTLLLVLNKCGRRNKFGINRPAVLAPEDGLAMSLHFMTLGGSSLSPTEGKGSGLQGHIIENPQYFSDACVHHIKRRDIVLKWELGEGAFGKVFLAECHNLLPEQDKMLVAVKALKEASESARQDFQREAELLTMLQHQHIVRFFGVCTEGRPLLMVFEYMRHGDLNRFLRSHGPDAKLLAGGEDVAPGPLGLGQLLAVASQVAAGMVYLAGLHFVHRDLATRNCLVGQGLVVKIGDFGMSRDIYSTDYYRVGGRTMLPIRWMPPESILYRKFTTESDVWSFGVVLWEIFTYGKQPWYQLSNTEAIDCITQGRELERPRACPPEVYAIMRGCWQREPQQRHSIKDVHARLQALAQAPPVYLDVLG
T4 sequence (O75914 whole entry): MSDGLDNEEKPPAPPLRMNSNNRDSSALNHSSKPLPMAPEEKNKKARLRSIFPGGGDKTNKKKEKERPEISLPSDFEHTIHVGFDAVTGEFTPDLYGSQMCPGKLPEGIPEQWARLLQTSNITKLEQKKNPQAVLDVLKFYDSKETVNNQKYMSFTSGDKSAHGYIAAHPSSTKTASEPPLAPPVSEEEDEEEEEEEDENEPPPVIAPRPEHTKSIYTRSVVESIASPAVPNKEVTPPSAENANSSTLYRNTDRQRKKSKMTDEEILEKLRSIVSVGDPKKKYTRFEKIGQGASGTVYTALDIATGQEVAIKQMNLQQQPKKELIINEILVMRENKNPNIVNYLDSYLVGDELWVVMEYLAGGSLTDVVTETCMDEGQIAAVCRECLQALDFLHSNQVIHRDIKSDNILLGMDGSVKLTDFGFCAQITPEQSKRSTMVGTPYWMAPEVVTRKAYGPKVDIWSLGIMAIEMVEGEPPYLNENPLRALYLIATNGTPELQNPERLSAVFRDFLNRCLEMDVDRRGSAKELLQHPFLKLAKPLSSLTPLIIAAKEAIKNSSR

Take `O=C(c1ccc(Oc2ccccc2)cc1Cl)c1c[nH]c2ncnc(N[C@@H]3CC[C@@H](CO)OC3)c12` [ARQ-531, (2-chloro-4-phenoxyphenyl) (4-(((3R,6S)-6-(hydroxymethyl)tetrahydro-2H-pyran-3-yl)amino)-7H-pyrrolo[2,3-d]pyrimidin-5-yl) methanone]: the inhibition at 1 µM at EGFR is 70 to 89%; on PKN3 it was 50 to 69%; on RAF1 YDYD it was 70 to 89%; at PAK3 it was 90 to 100%; on PDGFRbeta, less than 50%; on TRKA (setting [1]), no less than 50%. The inhibition at 1 µM on TRKA (setting [2]) lay in the range of 90 to 100%; at PAK2, 70 to 89%; at HCK it was 70 to 89%; at EPHA6, 50 to 69%; at ITK it was 50 to 69%.

With `Cc1cccnc1[C@H]1CCC[C@@H](c2ncccc2C)N1CCN1CCN(C(=O)c2ccc(-c3cc4c(-c5cccc(NC(=O)c6ccccc6)c5C)ncnc4[nH]3)cc2)CC1` [Compound I-10, N-(3-(6-(4-(4-(2-((2R,6S)-2,6-bis(3-methylpyridin-2-yl)piperidin-1-yl)ethyl)piperazine-1-carbonyl)phenyl)-7H-pyrrolo[2,3-d]pyrimidin-4-yl)-2-methylphenyl)benzamide], the inhibition at 1 µM is less than 50% at EGFR; 50 to 69% at PKN3; less than 50% on RAF1 YDYD; less than 50% on VEGFR2; less than 50% on PAK3; less than 50% on PDGFRbeta. The inhibition at 1 µM is 50 to 89% at TRKA (setting [1]); 70 to 89% at TRKA (setting [2]); less than 50% at PAK2; less than 50% on HCK; less than 50% on EPHA6; less than 50% at ITK.

In the case of `COc1ccc(F)cc1C(=O)NCc1ccc(-c2nn([C@@H](C)C(F)(F)F)c(N)c2C(N)=O)cc1` [LOXO-305, pirtobrutinib], the inhibition at 1 µM at EGFR, at PKN3, on RAF1 YDYD, at VEGFR2, on PAK3 and at PDGFRbeta was less than 50% in each case. The inhibition at 1 µM on TRKA (setting [2]), at PAK2, at HCK, at EPHA6 and at ITK was less than 50% in each case.

For the compound `C=CC(=O)N1CCC([C@@H]2CCNc3c(C(N)=O)c(-c4ccc(Oc5ccccc5)cc4)nn32)CC1` [Zanubrutinib, (7S)-2-(4-phenoxyphenyl)-7-(1-prop-2-enoylpiperidin-4-yl)-4,5,6,7-tetrahydropyrazolo[1,5-a]pyrimidine-3-carboxamide], the inhibition at 1 µM at EGFR, at PKN3, at RAF1 YDYD, on VEGFR2, on PAK3 and at PDGFRbeta was less than 50% in each case. The inhibition at 1 µM at TRKA (setting [2]), on PAK2, on EPHA6 and at ITK was less than 50% each time.
